Two compounds from patent US4868321A, “Isothiocyanate intermediates” (FMC Corporation, priority 1988, dated 1989) can be followed below.

Each structure is given as a SMILES string.

Holding throughout (type): in vivo
The subject of test [1] is Cotton. The test can be described thus: Preemergence Herbicidal Activity, Cotton. The settings on record: Gossypium hirsutum, pre-emergence. In short, it runs like this: (§1)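 Herbicide dissolved, usually in 50/50 acetone/water, then applied preemergence or postemergence at a set kg/ha rate. Control assessed as % C.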
In test [2] the test system is Soybean. The test can be described thus: Preemergence Herbicidal Activity, Soybean. The settings on record: Glycine max, pre-emergence. The method in brief:
(§2)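 Test compounds are dosed on a per-area basis (kg/ha); plant response is reported as % C.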

In test [3] the test system is Field Corn. Put plainly: Preemergence Herbicidal Activity, Field Corn. The settings on record: Zea mays, pre-emergence. The method in brief:
as §2

Test [4] has as its system Rice. The test can be described thus: Preemergence Herbicidal Activity, Rice. The settings on record: Oryza sativa, pre-emergence. The method in brief: as §2
Test [5] concerns Wheat. The test can be described thus: Preemergence Herbicidal Activity, Wheat. The settings on record: Triticum aestivum, pre-emergence. The method in brief: as §2
For test [6], the system named is Field Bindweed. Put plainly: Preemergence Herbicidal Activity, Field Bindweed. The settings on record: pre-emergence. In short, it runs like this: as §1
Test [7] has as its system Morningglory. The test can be described thus: Preemergence Herbicidal Activity, Morningglory. The settings on record: Ipomoea, pre-emergence. The method in brief:
as §1

Test [8] deals with Velvetleaf. The test can be described thus: Preemergence Herbicidal Activity, Velvetleaf. The settings on record: Abutilon theophrasti, pre-emergence. The method in brief:
as §1

Test [9] concerns Barnyardgrass. Put plainly: Preemergence Herbicidal Activity, Barnyardgrass. The settings on record: Echinochloa crus-galli, pre-emergence. The method in brief: (§3)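 Efficacy is recorded as percent control at each application rate, expressed in kg/ha.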
Test [10] deals with Green Foxtail. The test can be described thus: Preemergence Herbicidal Activity, Green Foxtail. The settings on record: Setaria viridis, pre-emergence. In short, it runs like this:
as §3

In test [11] the test system is Johnsongrass. Put plainly: Preemergence Herbicidal Activity, Johnsongrass. The settings on record: Sorghum halepense, pre-emergence. In short, it runs like this:
as §3

Test [12] deals with Cotton. The test can be described thus: Postemergence Herbicidal Activity, Cotton. The settings on record: Gossypium hirsutum, post-emergence. In short, it runs like this:
as §1

In test [13] the test system is Soybean. Put plainly: Postemergence Herbicidal Activity, Soybean. The settings on record: Glycine max, post-emergence. In short, it runs like this: as §2
Test [14] relates to Field Corn. The test can be described thus: Postemergence Herbicidal Activity, Field Corn. The settings on record: Zea mays, post-emergence. In short, it runs like this: as §2
Test [15] has as its system Rice. The test can be described thus: Postemergence Herbicidal Activity, Rice. The settings on record: Oryza sativa, post-emergence. The method in brief: as §2
The subject of test [16] is Wheat. The test can be described thus: Postemergence Herbicidal Activity, Wheat. The settings on record: Triticum aestivum, post-emergence. In short, it runs like this:
as §2

Test [17] relates to Field Bindweed. Put plainly: Postemergence Herbicidal Activity, Field Bindweed. The settings on record: post-emergence. The method in brief: as §1
For test [18], the system named is Morningglory. Put plainly: Postemergence Herbicidal Activity, Morningglory. The settings on record: Ipomoea, post-emergence. The method in brief:
as §1

For test [19], the system named is Velvetleaf. Put plainly: Postemergence Herbicidal Activity, Velvetleaf. The settings on record: Abutilon theophrasti, post-emergence. In short, it runs like this:
as §1

Test [20] concerns Barnyardgrass. Put plainly: Postemergence Herbicidal Activity, Barnyardgrass. The settings on record: Echinochloa crus-galli, post-emergence. The method in brief:
as §3

The test system of test [21] is Green Foxtail. Put plainly: Postemergence Herbicidal Activity, Green Foxtail. The settings on record: Setaria viridis, post-emergence. In short, it runs like this:
as §3

Test [22] concerns Johnsongrass. Put plainly: Postemergence Herbicidal Activity, Johnsongrass. The settings on record: Sorghum halepense, post-emergence. The method in brief: as §3
For the next test, the system named is cotton or soybeans. Put plainly: preemergence crop selectivity. The settings on record: rates below about 1/4 or 1/10 kg/ha.
The next test deals with broadleafed weeds. Put plainly: postemergence control of broadleaf weeds. The settings on record: postemergence, corn, wheat and soybeans.
Another test concerns corn, wheat and soybeans. The test can be described thus: postemergence crop selectivity.

Take `CCCN(c1cc(-n2nnn(CCCF)c2=O)c(F)cc1Cl)S(=O)(=O)CC` [Compound 14]: the plant injury at 1000 g/ha came to 100% in the test with Cotton [1] (1.0 kg/ha); 95% with Soybean [2] (1.0 kg/ha); 100% in the test with Field Corn [3] (1.0 kg/ha); 100% in the test with Rice [4] (1.0 kg/ha); 100% in the test with Wheat [5] (1.0 kg/ha); 100% with Cotton [12] (1.0 kg/ha). The plant injury at 1000 g/ha in the test with Soybean [13] (1.0 kg/ha), in the test on Field Corn [14] (1.0 kg/ha), with Rice [15] (1.0 kg/ha) and with Wheat [16] (1.0 kg/ha) was 100% each time. Moreover, the pest or weed control at 1000 g/ha in the test on Field Bindweed [6] (1.0 kg/ha), with Morningglory [7] (1.0 kg/ha), with Velvetleaf [8] (1.0 kg/ha), in the test on Barnyardgrass [9] (1.0 kg/ha), in the test on Green Foxtail [10] (1.0 kg/ha) and in the test on Johnsongrass [11] (1.0 kg/ha) was 100% in each case. Besides, the pest or weed control at 1000 g/ha with Field Bindweed [17] (1.0 kg/ha), with Morningglory [18] (1.0 kg/ha), in the test on Velvetleaf [19] (1.0 kg/ha), in the test on Barnyardgrass [20] (1.0 kg/ha), in the test with Green Foxtail [21] (1.0 kg/ha) and with Johnsongrass [22] (1.0 kg/ha) was 100% each time. In the test with cotton or soybeans, the herbicide selectivity result was “highly selective”.

With `CCS(=O)(=O)N(c1cc(-n2nnn(CCCF)c2=O)c(F)cc1Cl)S(C)(=O)=O` [Compound 11, 1-[4-chloro-2-fluoro-5-[(N--ethylsulfonyl-N--methylsulfonyl)amino]-phenyl]-1,4-dihydro-4-(3-fluoropropyl)-5H--tetrazol-5-one], the plant injury at 500 g/ha with Cotton [1] (0.5 kg/ha) came out at 100%; in the test on Soybean [2] (0.5 kg/ha), 30%; in the test on Field Corn [3] (0.5 kg/ha), 95%; in the test on Rice [4] (0.5 kg/ha) it was 80%; with Wheat [5] (0.5 kg/ha), 80%; with Cotton [12] (0.5 kg/ha), 100%. The plant injury at 500 g/ha with Soybean [13] (0.5 kg/ha) came to 60%; in the test on Field Corn [14] (0.5 kg/ha), 80%; in the test with Rice [15] (0.5 kg/ha), 40%; in the test on Wheat [16] (0.5 kg/ha), 70%. For the same compound, the pest or weed control at 500 g/ha in the test on Field Bindweed [6] (0.5 kg/ha) was found to be 100%; with Morningglory [7] (0.5 kg/ha), 100%; with Velvetleaf [8] (0.5 kg/ha), 100%; with Barnyardgrass [9] (0.5 kg/ha) it was 100%; in the test with Green Foxtail [10] (0.5 kg/ha), 100%; in the test with Johnsongrass [11] (0.5 kg/ha) it was 90%. The pest or weed control at 500 g/ha worked out at 100% in the test with Field Bindweed [17] (0.5 kg/ha); 80% in the test on Morningglory [18] (0.5 kg/ha); 100% in the test with Velvetleaf [19] (0.5 kg/ha); 80% with Barnyardgrass [20] (0.5 kg/ha); 80% in the test with Green Foxtail [21] (0.5 kg/ha); 50% with Johnsongrass [22] (0.5 kg/ha). For the same compound, the “results in postemergence use against broadleafed weeds” value in the test on broadleafed weeds is “particularly good results”. The “selectivity for crops, postemergence” value with corn, wheat and soybeans was “favorable selectivity”.

A word on the plant injury: it is how far the test organism was held down. A low value points to a weak effect. As usually defined, the pest or weed control is the degree to which the test organism was suppressed or injured, in per cent. The low end stands for a weak effect, the high end for a strong effect.
